Source: US20260219274A1, “POLYOL SWEETNERS AND CARDIOVASCULAR AND THROMBOTIC EVENT RISK” (THE CLEVELAND CLINIC FOUNDATION, priority 2023, published 2026)

Legend:
[1] = system: C57BL/6J mice; assay: Carotid artery FeCl3 injury thrombosis model; format: in vivo; conditions: for rate of clot / thrombus formation / time to cessation of blood flow following arterial injury: 25 mg/kg i.p. vs vehicle (saline)
Protocol: Mice were used to causally test whether elevation in xylitol plasma levels results in enhancement in thrombosis potential. All mice were C57BL/6J and 12-14 weeks of age. All animal studies were approved by the Institutional Animal Care and Use Committee at the Cleveland Clinic (IRB 2019-2251).
The FeCl3-induced carotid artery injury model was performed using intravital fluorescence microscopy with continuous image capture monitoring, as previously described.^44 Time to cessation of blood flow through thrombus formation for all experiments was determined by visual inspection by two independent investigators.
The FeCl3-induced carotid artery injury model was performed as previously described.^9 BL/6J mice, both male and female, 12-14 weeks of age, were i.p. injected with vehicle (saline) or xylitol (25 mg/kg). The animals were anesthetized with 100 mg/kg ketamine+10 mg/kg xylazine and rhodamine 6G (100 μL; 0.5 mg/mL, catalogue #252433, Sigma, St. Louis, MO, USA) was injected into the right jugular vein for platelet labeling. The left carotid artery was then exposed, and an injury induced using a 1 mm^2 Whatman filter paper containing 10% FeCl3 (Catalogue #157740, Sigma, St. Louis, MO, USA) for 1 min. Thrombus formation in real time was monitored using intravital fluorescence microscopy equipped with video recording. Time to cessation of blood flow through thrombus formation for all experiments was determined by visual inspection by two independent investigators and animals were immediately euthanized after data acquisition.
The common carotid artery FeCl3 induced injury model was performed as previously described^54. 12-14 weeks old BL/6J mice were injected with vehicle (normal saline), erythritol (25 mg/kg) or 1,5-AHG (25 mg/kg) and anesthetized with 100 mg/kg ketamine+10 mg/kg xylazine. Rhodamine 6G (100 μL; 0.5 mg/mL, catalogue #252433, Sigma, St. Louis, MO, USA) was injected into the right jugular vein to label platelets. The left carotid artery was then injured with a Whatman filter paper of 1 mm^2 size containing 10% FeCl3 (Catalogue #157740, Sigma, St. Louis, MO, USA) for 1 min. Intravital fluorescence microscopy equipped with video recording was used to monitor thrombus formation in real time. Time to cessation of blood flow through clot formation for all studies was determined by visual inspection of captured video by two independent investigators in real time. Data for the in vivo thrombosis were collected by Streampix 7—Multiple Camera DVR Software (NorPix Inc, Montreal, Canada). Animals were immediately euthanized after data acquisition.

[2] = cited from earlier work
[3] = system: human platelet-rich plasma; assay: Aggregometry in platelet-rich plasma; format: cell-based; conditions: for platelet responsiveness / aggregation with varying polyol level: fixed submaximal ADP or TRAP6, varying pre-incubation levels
Protocol: Aggregometry in platelet rich plasma (PRP) was performed as previously described^40 and outlined in supplemental methods.
Platelet rich plasma (PRP) was isolated as previously described.^5 Whole blood was drawn from healthy donors and anticoagulated with sodium citrate (0.109 M). PRP was prepared by centrifuging at 100×g for 10 min at 22° C. Platelet poor plasma (PPP) was obtained by additional centrifugation of the remaining blood samples at 11,000×g for 2 min. Next, platelets were counted with a hemocytometer and the platelet concentration adjusted to 2×10^8/mL using PPP. PRPs were then pre-incubated with xylitol (Catalogue #X3375-5G, Sigma, St. Louis, MO, USA) at indicated concentrations or vehicle (saline) for 30 min at 22° C. After exposure to xylitol or vehicle, PRPs were maintained in suspension with constant stirring (600 rpm) at 37° C. Subsequently, platelet aggregation was induced by adding the agonists ADP (up to 5 μM, Catalogue #384, Chronolog, Havertown, PA, US) or TRAP6 (TFLLR-NH2, up to 10 μM, Catalogue #464, Tocris, Bristol, UK). For all platelet aggregometry experiments, blood was always processed within approx. 30 minutes of collection, and isolated platelets were used within 120 minutes of isolation. When used, pairs of vehicle vs. xylitol incubated PRP were always incubated and analyzed together (beginning, middle, end of platelet prep use) and after 120 minutes post isolation, PRPs were not used anymore.
Platelet rich plasma (PRP) and platelet poor plasma (PPP) was prepared as previously described with sodium citrate (0.109 M) as anticoagulant^51. Platelets were counted and concentrations adjusted to 2×10^8/mL with PPP. PRPs were pre-incubated with erythritol (Catalogue #E7500, Sigma, St. Louis, MO, USA), glucose (Catalogue #G7021, Sigma, St. Louis, MO, USA) or 1,5-AHG (Catalogue #29874, Cayman Chemical, Ann Arbor, Michigan, USA) (at indicated concentrations) or vehicle (saline) for 30 min at 22° C. After pre-incubation PRPs were maintained in suspension with constant stirring (600 rpm) at 37° C. and platelet aggregation was initiated using ADP (up to 5 μM, Catalogue #384, Chronolog, Havertown, PA, US) or TRAP6 (TFLLR-NH2, up to […], Catalogue #464, Tocris, Bristol, UK).

SMILES | rate of clot / thrombus formation [1] | time to cessation of blood flow following arterial injury [1] | plasma xylitol level at which heightened thrombosis potential was observed ([1]; animal model of thrombosis (FIG. 4B)) [µM] | effect on blood sugar / insulin ([2]; in vivo) | platelet responsiveness / aggregation with varying polyol level [3] | stimulus-dependent platelet activation and aggregation ([3]; xylitol 30 μM with sub-maximal ADP or TRAP6) | effect on PRP without agonist ([3]; xylitol 30 μM, brief incubation) | well tolerated daily dose ([2]; digestive tolerance) | metabolism and excretion upon ingestion ([2]; in vivo) | stimulus-dependent platelet aggregation response to ADP and TRAP6 ([3]; PRP incubated with the polyol versus vehicle, submaximal agonist) | erythritol concentration eliciting significant increase in ADP-stimulated aggregometry responses ([3]; threshold, FIG. 27) [µM] | erythritol concentration eliciting significant increase in thrombin-stimulated aggregometry responses ([3]; threshold, FIG. 27) [µM]
OC[C@@H](O)[C@H](O)[C@@H](O)CO [xylitol] | marked increase | significant reduction | 19 | negligible impact | dose-dependent enhancement | marked enhancement | no effect | – | – | – | – | –
OC[C@@H](O)[C@@H](O)CO [erythritol] | marked enhancement | significant reduction | – | no short-term insulinemic or glycemic effects | dose-dependently enhanced | – | – | up to 1 g/kg | poorly metabolized and mostly excreted in the urine | significant increase | 18 | 18
